Literature values in US20210023041A1, “FORMULATIONS AND COMPOSITIONS OF DOCETAXEL” (Zhuhai Beihai Biotech Co., Ltd., priority 2018, published 2021).

- in vitro binding to plasma proteins (plasma proteins; in three cancer patients): approximately 97%
- protein bound (plasma proteins; in vitro studies, mainly to α1-acid glycoprotein, albumin, and lipoproteins): about 94%
- solubility in water: practically insoluble in water
Structure (SMILES): CC(=O)O[C@@]12CO[C@@H]1C[C@H](O)[C@@]1(C)C(=O)[C@H](O)C3=C(C)[C@@H](OC(=O)[C@H](O)[C@@H](NC(=O)OC(C)(C)C)c4ccccc4)C[C@@](O)([C@@H](OC(=O)c4ccccc4)[C@H]21)C3(C)C [Docetaxel]
- potency in inhibiting microtubule depolymerization relative to paclitaxel (microtubule): twice as potent as paclitaxel
